Calls of active or inactive are those of the source. No cut-off for these calls is given here.
Legend:
[1] = Antiproliferative activity against human IN1528 cells after 72 hrs by SRB method; format: functional, cell-based; settings: IN1528, 72 h
[2] = Antiproliferative activity against human IN1760 cells after 72 hrs by SRB method; format: functional, cell-based; settings: IN1760, 72 h
[3] = Antiproliferative activity against human IN1472 cells after 72 hrs by SRB method; format: functional, cell-based; settings: IN1472, 72 h
[4] = Antiproliferative activity against human U251MG cells after 72 hrs by SRB method; format: functional, cell-based; settings: U-251, 72 h
IN1528 [5] = assay: Induction of membrane disruption in human IN1528 cells assessed as dye uptake at 200 to 500 uM by trypan blue exclusion assay; format: functional, cell-based
IN1760 [6] = assay: Induction of membrane disruption in human IN1760 cells assessed as dye uptake at 200 to 500 uM by trypan blue exclusion assay; format: functional, cell-based
IN1472 [7] = assay: Induction of membrane disruption in human IN1472 cells assessed as dye uptake at 200 to 500 uM by trypan blue exclusion assay; format: functional, cell-based
U-251 [8] = assay: Induction of membrane disruption in human U251MG cells assessed as dye uptake at 200 to 500 uM by trypan blue exclusion assay; format: functional, cell-based
IN1528 [9] = assay: Induction of membrane disruption in human IN1528 cells assessed as cell structure disruption at 1000 uM by trypan blue exclusion assay; format: functional, cell-based
IN1760 [10] = assay: Induction of membrane disruption in human IN1760 cells assessed as cell structure disruption at 1000 uM by trypan blue exclusion assay; format: functional, cell-based
IN1472 [11] = assay: Induction of membrane disruption in human IN1472 cells assessed as cell structure disruption at 1000 uM by trypan blue exclusion assay; format: functional, cell-based
U-251 [12] = assay: Induction of membrane disruption in human U251MG cells assessed as cell structure disruption at 1000 uM by trypan blue exclusion assay; format: functional, cell-based
[13] = Induction of membrane disruption using DMPG lipid vesicles at 187.5 uM; format: functional
[14] = Induction of membrane disruption using DMPE lipid vesicles at 187.5 uM; format: functional
[15] = Induction of membrane disruption using DMPS lipid vesicles at 187.5 uM; format: functional
[16] = Induction of membrane disruption using DMPC lipid vesicles at 187.5 uM; format: functional

CCCCCCCC[n+]1ccc(C(=O)N(C)c2cc[n+](CCCCCCCC)cc2)cc1
EC50 [1]: 9.8 µM
EC50 [2]: 19.5 µM
EC50 [3]: 78 µM
EC50 [4]: 312 µM
Activity (IN1528 [5]): Active
Activity (IN1760 [6]): Active
Activity (IN1472 [7]): Active
Activity (U-251 [8]): Active
Activity (IN1528 [9]): Active
Activity (IN1760 [10]): Active
Activity (IN1472 [11]): Active
Activity (U-251 [12]): Active
Activity [13]: 44.2%
Activity [14]: 77.7%
Activity [15]: 64.6%
Activity [16]: 38.8%

CCCCCCCCc1ccc(C(=O)N(C)c2ccc(CCCCCCCC)cc2)cc1
Activity [13]: 16.6%
Activity [14]: 34.7%
Activity [15]: 27.2%
Activity [16]: 27.3%

CN(C(=O)c1ccncc1)c1ccncc1
Activity [13]: 30%
Activity [14]: 34.9%
Activity [15]: 23.3%
Activity [16]: 34.1%

Source: ChEMBL document CHEMBL3351806, “Development of a novel, multifunctional, membrane-interactive pyridinium salt with potent anticancer activity” (Bioorg Med Chem Lett, 2014)
